Source: patent US5229362A, “Antibiotic A10255 complex and factors, and process and production therefor” (Eli Lilly and Company, priority 1991, dated 1993)

Test system: rumen-cannulated wethers
Assay: Rumen lactic acidosis in rumen-cannulated wethers switched abruptly to concentrate
Assay type: in vivo, sheep
Conditions: 60 mg/d; Day 6, 12-hr sample

Compound: CC[C@@]1([C@@H]2O[C@@H]([C@H]3O[C@@](O)(CO)[C@H](C)C[C@@H]3C)C[C@@H]2C)CC[C@H]([C@]2(C)CC[C@]3(C[C@H](O)[C@@H](C)[C@@H]([C@@H](C)[C@@H](OC)[C@H](C)C(=O)O)O3)O2)O1 [Monensin]
- Rumen pH: 5.02
- Ruminal TVFA: 43.6 mM/l
